The % Inhibition is the change of the read-out against control, counted positive when it falls.

Experimental findings from paper PMC3605428, “A Readily Applicable Strategy to Convert Peptides to Peptoid-based Therapeutics” (PLoS ONE, 2013) are described below.

This experiment relates to 5-helix bundle (5HB) protein mimicking hRSV fusion protein F. Kind of experiment: 5HB-based competitive fluorescence polarization (FP) binding assay. Also noted: species or system human respiratory syncytial virus (hRSV). As to conditions: 200 µM peptide; inhibition of Fl-C35 tracer (5 nM) binding to 5HB (20 nM); FP buffer 20 mM PBS pH 7.4, 500 mM NaCl, 0.01% Tween-20, 0.05 mg/ml bovine gamma globulin; 1 h + 30 min at room temperature; ex 485/em 530 nm. The procedure: Competitive FP binding assays of the C20 derivatives were carried out as previously described. Briefly, a 5-helix bundle (5HB) protein was designed to mimic a post-fusion structure of fusion protein F (6-helix bundle) and provide a specific binding site for screening potential human respiratory syncytial virus (hRSV) entry inhibitors. Using a 5HB protein as a target protein and a fluorescently labeled 35 amino acid-long peptide (Fl-C35, sequence shown in Table S1) as a tracer, we performed a competitive FP assay to evaluated the binding affinity of each C20 analogue prepared in this study. In each well of a black 96-well plate (Corning Inc. Lowell, MA, USA), 20 nM of the 5HB with increasing concentrations of each peptomer in FP buffer (20 mM PBS at pH 7.4, 500 mM NaCl, 0.01% (v/v) Tween-20, and 0.05 mg/ml bovine gamma globulin) in a final volume of 185 µL was incubated for 1h at room temperature. Fl-C35 was then added to a final concentration of 5 nM followed by 30 min incubation at room temperature. The FP responses were monitored using a Synergy4 plate reader (Biotek, Winooski, VT, USA) with an excitation wavelength of 485 nm and an emission wavelength of 530 nm. The percentage of inhibition (% Inhibition) was calculated from the equation: % inhibition = 100×[1-(mP-mPf)/(mPb-mPf)]. Unbound Fl-C35 (mPf), bound Fl-C35 (mPb) and the bound inhibitor to the 5HB (mP) are used accordingly.
Sample preparation for FP measurements.
(In general: Polarisation of emitted light reports the rotation of a fluorescent probe.)

Non-standard residues stand in square brackets, D forms with d. No end group written: not given here. Sar = CNCC(=O)O

On to “ASQVNEKINQSLAFIRKSDE [Peptide A1, alanine-substituted C20 peptide]”, for which the “% Inhibition at 200 µM” value was 15.45%. The same measure for “IAQVNEKINQSLAFIRKSDE [Peptide A2, alanine-substituted C20 peptide]”: 23.63%.

As to “IPQVNEKINQSLAFIRKSDE [Peptide P2, proline-substituted C20 peptide]”, the “% Inhibition at 200 µM” value was 23.15%. In the case of “ISAVNEKINQSLAFIRKSDE [Peptide A3, alanine-substituted C20 peptide]”, the “% Inhibition at 200 µM” value is given as 27.27%. As to “ISPVNEKINQSLAFIRKSDE [Peptide P3, proline-substituted C20 peptide]”, the “% Inhibition at 200 µM” value is 14.81%. As to “ISQANEKINQSLAFIRKSDE [Peptide A4, alanine-substituted C20 peptide]”, the “% Inhibition at 200 µM” value came to 40.00%. The same measure for “ISQPNEKINQSLAFIRKSDE [Peptide P4, proline-substituted C20 peptide]”: 12.96%. In the case of “ISQVAEKINQSLAFIRKSDE [Peptide A5, alanine-substituted C20 peptide]”, the “% Inhibition at 200 µM” value stood at 25.90%.

As to “ISQVNAKINQSLAFIRKSDE [Peptide A6, alanine-substituted C20 peptide]”, the “% Inhibition at 200 µM” value turned out to be 89.09%.

On to “ISQVNEAINQSLAFIRKSDE [Peptide A7, alanine-substituted C20 peptide]”, for which the “% Inhibition at 200 µM” value is 100.00%. As to “ISQVNEKANQSLAFIRKSDE [Peptide A8, alanine-substituted C20 peptide]”, the “% Inhibition at 200 µM” value amounted to 13.63%. Consider “ISQVNEKIAQSLAFIRKSDE [Peptide A9, alanine-substituted C20 peptide]”, for which the “% Inhibition at 200 µM” value amounted to 30.90%. The same measure for “ISQVNEKINASLAFIRKSDE [Peptide A10, alanine-substituted C20 peptide]”: 11.36%; for “ISQVNEKINPSLAFIRKSDE [Peptide P10, proline-substituted C20 peptide]”: 9.26%; for “ISQVNEKINQALAFIRKSDE [Peptide A11, alanine-substituted C20 peptide]”: 33.18%. On to “ISQVNEKINQPLAFIRKSDE [Peptide P11, proline-substituted C20 peptide]”, for which the “% Inhibition at 200 µM” value is 9.26%. Take “ISQVNEKINQSAAFIRKSDE [Peptide A12, alanine-substituted C20 peptide]”: the “% Inhibition at 200 µM” value came out at 43.63%. Turning to “ISQVNEKINQSLAAIRKSDE [Peptide A14, alanine-substituted C20 peptide]”, the “% Inhibition at 200 µM” value is listed as 25.00%. With “ISQVNEKINQSLAFARKSDE [Peptide A15, alanine-substituted C20 peptide]”, the “% Inhibition at 200 µM” value stood at 21.36%. With “ISQVNEKINQSLAFIAKSDE [Peptide A16, alanine-substituted C20 peptide]”, the “% Inhibition at 200 µM” value is reported as 53.63%.

Turning to “ISQVNEKINQSLAFIPKSDE [Peptide P16, proline-substituted C20 peptide]”, the “% Inhibition at 200 µM” value is listed as 4.63%. Consider “ISQVNEKINQSLAFIRASDE [Peptide A17, alanine-substituted C20 peptide]”, for which the “% Inhibition at 200 µM” value is on record as 100.00%.

On to “ISQVNEKINQSLAFIRKADE [Peptide A18, alanine-substituted C20 peptide]”, for which the “% Inhibition at 200 µM” value is reported as 36.81%. Take “ISQVNEKINQSLAFIRKPDE [Peptide P18, proline-substituted C20 peptide]”: the “% Inhibition at 200 µM” value worked out at 0.93%.

With “ISQVNEKINQSLAFIRKSAE [Peptide A19, alanine-substituted C20 peptide]”, the “% Inhibition at 200 µM” value stood at 31.81%. The same measure for “ISQVNEKINQSLAFIRKSDA [Peptide A20, alanine-substituted C20 peptide]”: 29.09%; for “ISQVNEKINQSLAFIRKSDE [Peptide A13, alanine scan entry for position 13]”: 100.00%; for “ISQVNEKINQSLAFIRKSDE [Peptide C20, 20 amino acid-long peptide derived from the 6th helix of hRSV fusion protein F]”: 100%. With “ISQVNEKINQSLAFIRKSDP [Peptide P20, proline-substituted C20 peptide]”, the “% Inhibition at 200 µM” value is 31.48%.

Consider “ISQVNEKINQSLAFIRKSD[Sar] [Sar20, sarcosine-substituted C20 peptide]”, for which the “% Inhibition at 200 µM” value stood at 100.00%. “ISQVNEKINQSLAFIRKSPE [Peptide P19, proline-substituted C20 peptide]”: the “% Inhibition at 200 µM” value is given as 84.26%. On to “ISQVNEKINQSLAFIRKS[Sar]E [Sar19, sarcosine-substituted C20 peptide]”, for which the “% Inhibition at 200 µM” value was found to be 59.26%. For “ISQVNEKINQSLAFIRK[Sar]DE [Sar18, sarcosine-substituted C20 peptide]”, the “% Inhibition at 200 µM” value was 21.30%.

On to “ISQVNEKINQSLAFIRPSDE [Peptide P17, proline-substituted C20 peptide]”, for which the “% Inhibition at 200 µM” value is reported as 6.48%. Consider “ISQVNEKINQSLAFIR[Sar]SDE [Sar17, sarcosine-substituted C20 peptide]”, for which the “% Inhibition at 200 µM” value came out at 84.26%.

Consider “ISQVNEKINQSLAFI[Sar]KSDE [Sar16, sarcosine-substituted C20 peptide]”, for which the “% Inhibition at 200 µM” value was found to be 0.00%. On to “ISQVNEKINQSLAFPRKSDE [Peptide P15, proline-substituted C20 peptide]”, for which the “% Inhibition at 200 µM” value is listed as 4.63%. Turning to “ISQVNEKINQSLAF[Sar]RKSDE [Sar15, sarcosine-substituted C20 peptide]”, the “% Inhibition at 200 µM” value stood at 30.56%. With “ISQVNEKINQSLAPIRKSDE [Peptide P14, proline-substituted C20 peptide]”, the “% Inhibition at 200 µM” value was determined as 13.89%. For the substance “ISQVNEKINQSLA[Sar]IRKSDE [Sar14, sarcosine-substituted C20 peptide]”, the “% Inhibition at 200 µM” value turned out to be 4.63%. With “ISQVNEKINQSLPFIRKSDE [Peptide P13, proline-substituted C20 peptide]”, the “% Inhibition at 200 µM” value is 10.19%. The same measure for “ISQVNEKINQSL[Sar]FIRKSDE [Sar13, sarcosine-substituted C20 peptide]”: 4.63%.

On to “ISQVNEKINQSPAFIRKSDE [Peptide P12, proline-substituted C20 peptide]”, for which the “% Inhibition at 200 µM” value was determined as 22.22%. Consider “ISQVNEKINQS[Sar]AFIRKSDE [Sar12, sarcosine-substituted C20 peptide]”, for which the “% Inhibition at 200 µM” value stood at 7.41%. As to “ISQVNEKINQ[Sar]LAFIRKSDE [Sar11, sarcosine-substituted C20 peptide]”, the “% Inhibition at 200 µM” value was 13.89%. In the case of “ISQVNEKIN[Sar]SLAFIRKSDE [Sar10, sarcosine-substituted C20 peptide]”, the “% Inhibition at 200 µM” value was 21.30%.

Turning to “ISQVNEKIPQSLAFIRKSDE [Peptide P9, proline-substituted C20 peptide]”, the “% Inhibition at 200 µM” value is 33.33%. “ISQVNEKI[Sar]QSLAFIRKSDE [Sar9, sarcosine-substituted C20 peptide]”: the “% Inhibition at 200 µM” value worked out at 13.89%. Take “ISQVNEKPNQSLAFIRKSDE [Peptide P8, proline-substituted C20 peptide]”: the “% Inhibition at 200 µM” value is on record as 11.11%. For the substance “ISQVNEK[Sar]NQSLAFIRKSDE [Sar8, sarcosine-substituted C20 peptide]”, the “% Inhibition at 200 µM” value was 26.85%. For the substance “ISQVNE[Sar]INQSLAFIRKSDE [Sar7, sarcosine-substituted C20 peptide]”, the “% Inhibition at 200 µM” value turned out to be 100.00%. The same measure for “ISQVNPKINQSLAFIRKSDE [Peptide P6, proline-substituted C20 peptide]”: 26.85%. Under “ISQVN[Sar]KINQSLAFIRKSDE [Sar6, sarcosine-substituted C20 peptide]” stands 108.33%. In the case of “ISQVPEKINQSLAFIRKSDE [Peptide P5, proline-substituted C20 peptide]”, the “% Inhibition at 200 µM” value is recorded as 34.26%. For the substance “ISQV[Sar]EKINQSLAFIRKSDE [Sar5, sarcosine-substituted C20 peptide]”, the “% Inhibition at 200 µM” value is given as 23.15%. On to “ISQ[Sar]NEKINQSLAFIRKSDE [Sar4, sarcosine-substituted C20 peptide]”, for which the “% Inhibition at 200 µM” value is 1.85%. Turning to “IS[Sar]VNEKINQSLAFIRKSDE [Sar3, sarcosine-substituted C20 peptide]”, the “% Inhibition at 200 µM” value was 11.11%.

As to “I[Sar]QVNEKINQSLAFIRKSDE [Sar2, sarcosine-substituted C20 peptide]”, the “% Inhibition at 200 µM” value was 22.22%.

For the substance “PSQVNEKINQSLAFIRKSDE [Peptide P1, proline-substituted C20 peptide]”, the “% Inhibition at 200 µM” value came to 26.85%.
